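Dose response: 5 concentrations. Exposure: 48 h. Format: 96-well plates. Endpoint: linear interpolation; highest concentration if not reached. TGI denotes the concentration required for complete inhibition of growth.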
Legend:
Assay in all cases: NCI anticancer screen, dose series, 48 h
[1] = test system: NCI-H460 lung
[2] = test system: HL-60(TB) leukemia
[3] = test system: HCC-2998 colon
[4] = test system: MDA-MB-231 breast
[5] = test system: UO-31 renal
[6] = test system: KM12 colon
[7] = test system: TK-10 renal
[8] = test system: SNB-19 CNS
[9] = test system: M14 melanoma
[10] = test system: SF-539 CNS
[11] = test system: SW-620 colon
[12] = test system: NCI/ADR-RES ovarian
[13] = test system: CCRF-CEM leukemia
[14] = test system: SF-268 CNS
[15] = test system: IGROV1 ovarian
[16] = test system: U251 CNS
[17] = test system: SK-MEL-28 melanoma
[18] = test system: A498 renal
[19] = test system: CAKI-1 renal
[20] = test system: RXF 393 renal

SMILES	TGI [1] [µM]	TGI [2] [µM]	TGI [3] [µM]	TGI [4] [µM]	TGI [5] [µM]	TGI [6] [µM]	TGI [7] [µM]	TGI [8] [µM]	TGI [9] [µM]	TGI [10] [µM]	TGI [11] [µM]	TGI [12] [µM]	TGI [13] [µM]	TGI [14] [µM]	TGI [15] [µM]	TGI [16] [µM]	TGI [17] [µM]	TGI [18] [µM]	TGI [19] [µM]	TGI [20] [µM]
C1CSCCSCCCSC2CCCCC2SC1 (stereo not drawn)	> 100	95.3	> 100	> 100	> 100	> 100	> 100	> 100	> 100	> 100	> 100	> 100	> 100	> 100	> 100	> 100	> 100			
CC(Oc1ccccc1Cl)C(=O)NN1C(=O)CC(=O)N(c2ccccc2)C1=S (stereo not drawn)	> 100	59.7	> 100	> 100	> 100	> 100	> 100	> 100	> 100	> 100	> 100	> 100		> 100	> 100	> 100	> 100	> 100	> 100	> 100
Nc1ccc2[nH]c(-c3cccc(C(F)(F)F)c3)cc(=O)c2c1	> 100		> 100	> 100	> 100	> 100	> 100	> 100	> 100	53	> 100	> 100	59.9		> 100	> 100	> 100	82.9	> 100	
COc1cc(CSc2ccc(O)cc2)cc(OC)c1OC	> 100	> 100		> 100	52	> 100	> 100	> 100	> 100	> 100	> 100	83.6		> 100	> 100	> 100	> 100	> 100	> 100	> 100
COC(=O)c1c(C(=O)OC)c2ccccn2c1-c1cc(OC)c(Br)c(=O)o1	> 100	> 100	> 100	> 100	> 100	> 100	> 100	> 100	> 100	> 100	> 100	> 100	> 100	> 100	> 100		> 100	> 100		> 100
COCCN(CCNC(=O)c1cccc2c(N)c3cccc(C)c3nc12)CCOC	7.11		1.72	5.43		6.93	16.6	22.3	2.7	4.64	> 50.2	33.7	> 26.2	2.3	7.25	> 63.6	> 41.1	14.6	4.49	5.96
Cc1c(C)c(C)c(Cn2[nH]c(=O)n(C)c2=O)c(C)c1C	> 100	> 100	> 100	> 100	> 100	> 100	> 100	> 100	> 100	> 100	> 100	> 100	> 100	> 100	> 100	> 100	> 100	> 100	> 100	
CCOC(=O)NN(C(=O)OCC)C(C(=O)C1=CCCCC1)N(NC(=O)OCC)C(=O)OCC	> 100		> 100	> 100	> 100	> 100	> 100	> 100	> 100	> 100	> 100	> 100		> 100	> 100	> 100	> 100	> 100	> 100	> 100
COc1ccc(OC)c(NCC(=O)Nn2cnc3ccc(S(=O)(=O)Nc4cc(OC)ccc4OC)cc3c2=O)c1	> 100	43.1	> 100	> 100	> 100	> 100	> 100	> 100	> 100	> 100	> 100	> 100	> 100	> 100	> 100	> 100	> 100		> 100	
COc1cccc(C23CCCC(C2)NCC3Br)c1OC (stereo not drawn)	> 100			> 100	> 100	> 100	> 100	> 100	> 100		> 100	> 100	99.3	> 100	> 100	> 100	> 100	31.3	> 100	> 100
CCOC(=O)/C=C(\C(=O)OCC)n1ccc(=O)n(Cc2cnnn2CCCCOC(C)=O)c1=O	26		35.5	38.1	36.5	30.5	8.96		38.8	5.44	> 41.1	40.1		34.1	28.4	> 59.3	21.4	37.6	6.8	2.16
Oc1ccc([C@H]2c3c(O)cc(O)cc3C3c4c(cc(O)cc4[C@@H]2[C@H]2c4cc(O)cc5c4C(c4cc(O)cc(O)c4[C@@H]2c2ccc(O)cc2)[C@@H](c2ccc(O)cc2)O5)O[C@@H]3c2ccc(O)cc2)cc1 (stereo partly drawn)	> 100	> 100		> 100		> 100	> 100	> 100	> 100	5.33		> 100	> 100	> 100	> 100	> 100	0.972		> 100	0.428
CC(=O)Oc1cc(S(=O)(=O)Nc2n[nH]c(Nc3ccc(C)cc3)n2)c(S)cc1Cl	> 100	> 100		> 100	> 100	> 100	> 100	> 100	> 100	> 100	> 100	> 100	> 100		> 100	> 100	> 100	> 100	> 100	
COC(=O)C1CCC(=S)N1C(=O)OCc1ccccc1 (stereo not drawn)	> 100		> 100	> 100	> 100	> 100	> 100	> 100	> 100		> 100	> 100	> 100	> 100	> 100	> 100	> 100	> 100	> 100	> 100
CCOC(=O)C(NC(=O)c1ccccc1)(Nc1ccc(S(=O)(=O)Nc2ncccn2)cc1)C(F)(F)F (stereo not drawn)	> 100	> 100	> 100	> 100	> 100	> 100	> 100	> 100	> 100	> 100	> 100	> 100	> 100	> 100	> 100	> 100	> 100		> 100	> 100
COc1ccccc1Cc1ccc(C2C=CC3(CC(=O)C=C3C)C(=O)C2)o1 (stereo not drawn)	> 100	41.7	> 100	50.1	> 100	> 100	> 100	> 100	> 100	42.9	40.7	> 100		64.9	> 100	30.6	> 100	47.7	> 100	56.3
NS(=O)(=O)c1nnc(NC(=O)C23CC4CC(CC(C4)C2)C3)s1	> 100		> 100	> 100	> 100	> 100	> 100	> 100	> 100	> 100	> 100	> 100		> 100		> 100	> 100	> 100	> 100	> 100
CCOP(=O)(OCC)/C(C#N)=C/c1cccn1C(C)C	> 100		> 100	> 100	> 100	> 100	> 100	> 100	> 100	> 100	> 100	> 100		> 100	> 100	> 100	> 100	> 100	> 100	> 100
CCOC(=O)c1nc2ccc(C(F)(F)F)cc2nc1Nc1cc(OC)c(OC)c(OC)c1	> 100	> 100	> 100	> 100	> 100	> 100	> 100	> 100	> 100	> 100	> 100	> 100	> 100	> 100	> 100		> 100	> 100		> 100
O=C1CSC(c2c[nH]c3ccccc23)N1c1ccc(Cl)cc1 (stereo not drawn)	> 100	> 100	> 100	> 100	> 100	> 100	> 100	> 100	> 100	> 100	> 100	> 100		> 100	> 100	> 100	> 100	> 100		> 100
CCCCn1c(CSc2ccc(Cl)cc2)c(C(=O)OCC)c2cc(OC)c(Br)cc21	> 100	> 100	> 100	> 100	> 100	> 100	> 100	> 100	> 100		> 100	> 100	> 100	> 100	> 100	> 100	> 100	> 100	75.9	
CSC1NC(c2ccccc2)=C(C#N)C(=O)N1C1OCC(OC(C)=O)C(OC(C)=O)C1OC(C)=O (stereo not drawn)	> 100		> 100	> 100	> 100	> 100	> 100	> 100	> 100	> 100	> 100	> 100		> 100	> 100	> 100	> 100	> 100	> 100	> 100
COc1ccc(/C=C/C(=O)/C=C/c2ccc(OC)cc2OC)c(OC)c1	24	13.9	13.3	78.5	41.3	> 100	47.3	82.8	36.2	36.7	83.6	91.4	13.5	33.7	36.1	23.4	22.5		23.4	37.1
COc1ccc(/C(C)=N/NC(=O)c2ccncc2)c(OC)c1	> 10	> 10	> 10	> 10	> 10	> 10	> 10		> 10	> 10	> 10	> 10	> 10	> 10	> 10	> 10	> 10	> 10	> 10	
CC1CN=C(NS(=O)(=O)c2cc(C(=O)Nc3ccc(Cl)cc3)c(Cl)cc2S)NN1 (stereo not drawn)	> 100	> 100	49.1	> 100	> 100	97.1	> 100	> 100	69.5	81.8	> 100	> 100	> 100	52.1	> 100	> 100	83.9	37.1	> 100	

— PubChem BioAssay (NCI)
